Assay results taken from publication PMC6812009, “Covalent Aurora A regulation by the metabolic integrator coenzyme A” (Redox Biology, 2019).

Assays:
mouse oocytes = assay: Microinjection of mouse oocytes, spindle formation and chromosome alignment; format: cell-based; conditions: 17 h after GV release; for Disruption of bipolar spindle formation and chromosome alignment: injected with 3 mM compound
Protocol: Mouse oocytes arrested at the GV stage were injected with different concentrations of CoA (0.15–5 mM). Since the commercial preparation of CoA used for microinjection contained 3 mol of lithium ions per mole of CoA, control oocytes were injected with an equivalent amount of LiCl. In a separate study, oocytes were injected with 3 mM CoA, ADP, AMP, 3′-5′-ADP and pantetheine. To examine the effect of injected compounds on spindle formation, oocytes were fixed 17 h after GV release and stained for alpha-tubulin (green) and DNA (blue).

IGF-1R = IGF-1R (Homo sapiens, UniProt P08069); assay: Kinase profiling screen (radioactive filter-binding assay); format: biochemical; conditions: 100 μM compound, 5 μM ATP; read-out: Kinase activity, % of activity in the absence of inhibitor
IGF-1R, sequence (P08069 31-1367): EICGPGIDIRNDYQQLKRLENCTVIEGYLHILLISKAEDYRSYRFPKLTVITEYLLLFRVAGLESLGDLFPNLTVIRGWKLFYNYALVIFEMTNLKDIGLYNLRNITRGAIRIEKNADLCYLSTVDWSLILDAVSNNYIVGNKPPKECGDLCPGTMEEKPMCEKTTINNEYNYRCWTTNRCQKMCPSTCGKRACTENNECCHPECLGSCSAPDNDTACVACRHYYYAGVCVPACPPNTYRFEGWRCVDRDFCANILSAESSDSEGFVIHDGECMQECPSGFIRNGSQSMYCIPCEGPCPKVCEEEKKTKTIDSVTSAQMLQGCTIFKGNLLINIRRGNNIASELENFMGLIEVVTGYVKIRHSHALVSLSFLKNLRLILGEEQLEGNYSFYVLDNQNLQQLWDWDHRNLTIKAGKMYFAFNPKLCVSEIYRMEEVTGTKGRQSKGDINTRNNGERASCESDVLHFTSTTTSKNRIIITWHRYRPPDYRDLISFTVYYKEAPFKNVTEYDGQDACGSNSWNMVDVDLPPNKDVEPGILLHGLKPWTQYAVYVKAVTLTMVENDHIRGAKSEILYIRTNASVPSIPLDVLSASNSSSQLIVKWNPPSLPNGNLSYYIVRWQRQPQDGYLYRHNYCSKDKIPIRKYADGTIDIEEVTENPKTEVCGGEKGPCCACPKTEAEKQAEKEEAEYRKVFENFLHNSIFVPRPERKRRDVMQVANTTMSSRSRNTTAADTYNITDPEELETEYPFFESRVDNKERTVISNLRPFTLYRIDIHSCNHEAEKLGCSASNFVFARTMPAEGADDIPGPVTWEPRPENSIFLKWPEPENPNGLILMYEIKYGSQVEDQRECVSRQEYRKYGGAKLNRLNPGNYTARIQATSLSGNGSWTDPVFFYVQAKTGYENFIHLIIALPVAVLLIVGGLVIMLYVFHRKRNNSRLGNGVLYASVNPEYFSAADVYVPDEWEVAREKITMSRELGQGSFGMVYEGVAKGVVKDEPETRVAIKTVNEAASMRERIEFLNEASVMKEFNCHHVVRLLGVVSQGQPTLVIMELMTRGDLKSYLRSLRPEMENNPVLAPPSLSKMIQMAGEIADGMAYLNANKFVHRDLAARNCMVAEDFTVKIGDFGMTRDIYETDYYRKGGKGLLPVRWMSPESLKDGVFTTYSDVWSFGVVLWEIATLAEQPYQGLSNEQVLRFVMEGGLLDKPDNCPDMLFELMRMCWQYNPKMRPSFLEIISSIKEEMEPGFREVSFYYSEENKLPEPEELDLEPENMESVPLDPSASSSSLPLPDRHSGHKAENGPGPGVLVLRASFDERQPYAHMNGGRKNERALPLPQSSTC
In short: (§1)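 Residual kinase activity is read in duplicate wells containing 100 μM final test compound (CoA, dpCoA or ADP). Recombinant kinases use model substrates at ATP levels optimal for each enzyme, across a 117-kinase screen.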

IR = IR (Homo sapiens, UniProt P06213); assay: as above; format: biochemical; conditions: 100 μM compound, 20 μM ATP; read-out: Kinase activity, % of activity in the absence of inhibitor
IR, sequence (P06213 28-1382): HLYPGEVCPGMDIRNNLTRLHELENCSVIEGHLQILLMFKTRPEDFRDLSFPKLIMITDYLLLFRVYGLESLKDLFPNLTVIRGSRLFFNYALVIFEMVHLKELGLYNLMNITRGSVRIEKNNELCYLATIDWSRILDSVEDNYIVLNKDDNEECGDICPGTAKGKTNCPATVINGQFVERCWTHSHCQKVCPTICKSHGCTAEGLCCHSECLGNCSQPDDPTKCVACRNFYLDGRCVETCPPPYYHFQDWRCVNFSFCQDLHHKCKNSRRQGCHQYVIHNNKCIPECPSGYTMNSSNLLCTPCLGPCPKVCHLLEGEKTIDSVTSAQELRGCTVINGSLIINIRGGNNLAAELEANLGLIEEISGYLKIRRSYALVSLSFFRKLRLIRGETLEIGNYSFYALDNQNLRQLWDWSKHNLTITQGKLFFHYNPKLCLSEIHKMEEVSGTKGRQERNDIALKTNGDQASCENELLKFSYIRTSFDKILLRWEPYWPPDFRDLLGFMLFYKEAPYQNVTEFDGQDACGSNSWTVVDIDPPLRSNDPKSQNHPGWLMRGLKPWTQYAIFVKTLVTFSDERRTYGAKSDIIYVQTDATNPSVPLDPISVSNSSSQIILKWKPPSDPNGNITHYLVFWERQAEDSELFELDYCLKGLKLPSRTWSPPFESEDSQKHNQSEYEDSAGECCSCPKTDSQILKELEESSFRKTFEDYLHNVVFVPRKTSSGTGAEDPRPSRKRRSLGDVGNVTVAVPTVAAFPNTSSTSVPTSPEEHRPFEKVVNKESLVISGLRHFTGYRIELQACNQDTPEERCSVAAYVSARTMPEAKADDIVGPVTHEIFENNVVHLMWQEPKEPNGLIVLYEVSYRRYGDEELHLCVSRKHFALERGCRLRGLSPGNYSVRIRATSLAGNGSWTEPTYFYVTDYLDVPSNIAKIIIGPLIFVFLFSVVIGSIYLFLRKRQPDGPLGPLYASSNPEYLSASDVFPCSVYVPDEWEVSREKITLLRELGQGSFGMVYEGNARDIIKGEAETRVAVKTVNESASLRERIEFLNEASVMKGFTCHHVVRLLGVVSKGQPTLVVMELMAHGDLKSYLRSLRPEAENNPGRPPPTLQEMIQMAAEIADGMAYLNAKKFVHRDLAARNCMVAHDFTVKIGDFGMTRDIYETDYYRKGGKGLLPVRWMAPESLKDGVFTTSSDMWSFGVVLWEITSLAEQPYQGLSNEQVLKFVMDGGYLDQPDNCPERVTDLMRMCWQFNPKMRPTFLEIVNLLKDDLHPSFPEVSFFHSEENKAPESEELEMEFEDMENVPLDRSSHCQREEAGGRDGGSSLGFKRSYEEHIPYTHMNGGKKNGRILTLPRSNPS
In short: as §1

IRR = IRR (Homo sapiens, UniProt P14616); assay: as above; format: biochemical; conditions: 100 μM compound, 5 μM ATP; read-out: Kinase activity, % of activity in the absence of inhibitor
In short: as §1

TrkA = TrkA (Homo sapiens, UniProt P04629); assay: as above; format: biochemical; conditions: 100 μM compound, 20 μM ATP; read-out: Kinase activity, % of activity in the absence of inhibitor
TrkA, sequence (P04629 33-796): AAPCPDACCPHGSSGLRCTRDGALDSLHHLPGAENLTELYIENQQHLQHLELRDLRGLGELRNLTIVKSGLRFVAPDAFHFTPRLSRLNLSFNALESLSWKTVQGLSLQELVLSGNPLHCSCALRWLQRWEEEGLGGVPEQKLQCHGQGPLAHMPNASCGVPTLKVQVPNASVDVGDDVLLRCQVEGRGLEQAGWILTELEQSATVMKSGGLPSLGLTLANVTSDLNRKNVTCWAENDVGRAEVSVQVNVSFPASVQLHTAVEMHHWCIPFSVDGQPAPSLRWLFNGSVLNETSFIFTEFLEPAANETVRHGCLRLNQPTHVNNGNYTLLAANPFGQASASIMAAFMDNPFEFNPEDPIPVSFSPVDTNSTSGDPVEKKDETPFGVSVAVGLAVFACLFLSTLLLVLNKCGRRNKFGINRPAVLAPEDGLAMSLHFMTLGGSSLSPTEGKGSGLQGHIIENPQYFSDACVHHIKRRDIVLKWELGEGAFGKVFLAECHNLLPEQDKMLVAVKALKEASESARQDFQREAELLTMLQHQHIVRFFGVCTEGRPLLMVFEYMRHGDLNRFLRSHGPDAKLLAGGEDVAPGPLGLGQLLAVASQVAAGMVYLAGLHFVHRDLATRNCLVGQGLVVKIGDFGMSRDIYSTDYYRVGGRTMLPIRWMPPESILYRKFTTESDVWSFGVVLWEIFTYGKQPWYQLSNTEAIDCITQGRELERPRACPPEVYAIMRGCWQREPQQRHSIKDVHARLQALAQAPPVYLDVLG
In short: as §1

VEGFR = assay: as above; format: biochemical, human; conditions: 100 μM compound, 20 μM ATP
Protocol: Profiling of 117 protein kinases with CoA, dpCoA and ADP was carried out at the International Centre for Protein Kinase Profiling at the University of Dundee. Each compound was tested in vitro, in duplicate, at 100 μM final concentration using recombinant kinases, model substrates and optimal concentrations of ATP. Bacterially expressed full-length His-Aurora A was used to determine the IC50 value for CoA (in the presence or absence of DTT), dpCoA, ADP and desulfo-CoA. The assay was performed in the presence of 5 μM competing ATP. To examine whether the inhibitory effect of CoA on Aurora A is modulated by TPX2, IC50 values for CoA were also generated in the presence and absence of 1 μg TPX2 (residues 1–43) fragment.

Aurora B = Aurora B (Homo sapiens, UniProt Q96GD4); assay: In vitro CoAlation assay; format: binding; conditions: optimal Aurora A assay conditions
Aurora B, sequence (Q96GD4 whole entry): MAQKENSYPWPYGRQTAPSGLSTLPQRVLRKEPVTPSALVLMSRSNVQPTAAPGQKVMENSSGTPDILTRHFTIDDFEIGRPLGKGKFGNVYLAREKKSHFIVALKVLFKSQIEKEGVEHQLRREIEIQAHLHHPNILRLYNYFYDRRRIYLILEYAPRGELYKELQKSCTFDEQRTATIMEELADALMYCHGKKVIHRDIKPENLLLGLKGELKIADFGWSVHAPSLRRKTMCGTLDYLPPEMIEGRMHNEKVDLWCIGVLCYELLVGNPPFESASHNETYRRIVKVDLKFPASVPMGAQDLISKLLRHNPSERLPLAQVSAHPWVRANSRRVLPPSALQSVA
Protocol: (§2) For CoAlation assays, 0.5 μg of purified recombinant preparations of wild type and mutant forms of His-Aurora A (Cys290Ala; Cys393Ala, Cys290/393Ala, Thr217Glu) and His-Aurora B (Glu161Thr) were incubated with a mixture of oxidised and reduced forms of CoA (CoASH and CoASSCoA, 1 mM final) in 20 mM Tris-HCl, pH 7.5 for 30 min at RT. The reaction was stopped by adding SDS gel-loading buffer without DTT, but containing 10 mM NEM. To examine whether binding of the 3′-phosphate ADP moiety of CoA to the Aurora A ATP binding-pocket co-ordinates the pantetheine thiol for disulfide bond formation with Cys 290, the in vitro CoAlation assay was carried out with 100 μM CoA and increasing concentrations of ATP (0–10 mM).

Aurora B mutant = molecular target: T1, Aurora B mutant (Homo sapiens, UniProt Q96GD4, E161T); assay: In vitro CoAlation assay; format: binding
T1 construct: For enzyme and DSF assays, full-length human Aurora A and Aurora B and 1–43 TPX2 were produced; made in house; host or cells: E. coli BL21 (DE3) pLysS
T1 sequence (Q96GD4 whole entry E161T): as the sequence (Q96GD4 whole entry) above, with E161T counted along it
Protocol: as §2

[1] = molecular target: T2, Cys290/393Ala Aurora A mutant (Homo sapiens, UniProt O14965, C290A/C393A); assay: In vitro CoAlation assay; format: binding
T2 construct: made in house
T2 sequence (O14965 whole entry C290A/C393A): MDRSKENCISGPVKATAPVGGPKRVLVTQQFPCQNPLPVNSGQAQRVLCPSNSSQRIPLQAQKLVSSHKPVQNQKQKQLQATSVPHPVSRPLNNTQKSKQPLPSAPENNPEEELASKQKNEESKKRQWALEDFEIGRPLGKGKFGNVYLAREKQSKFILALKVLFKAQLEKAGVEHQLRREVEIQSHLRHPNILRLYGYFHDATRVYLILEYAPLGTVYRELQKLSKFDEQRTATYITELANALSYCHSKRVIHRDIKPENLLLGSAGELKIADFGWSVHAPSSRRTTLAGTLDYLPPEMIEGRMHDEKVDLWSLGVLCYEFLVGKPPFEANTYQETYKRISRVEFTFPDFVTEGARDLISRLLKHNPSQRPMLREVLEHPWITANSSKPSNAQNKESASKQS
Protocol: as §2

[2] = molecular target: T3, Cys290Ala Aurora A mutant (Homo sapiens, UniProt O14965, C290A); assay: In vitro CoAlation assay; format: binding
T3 construct: For enzyme and DSF assays, full-length human Aurora A and Aurora B and 1–43 TPX2 were produced; made in house; host or cells: E. coli BL21 (DE3) pLysS
T3 sequence (O14965 whole entry C290A): as the sequence (O14965 whole entry C290A/C393A) above, with A393C counted along it
Protocol: as §2

[3] = molecular target: T4, Thr217Glu mutant of Aurora A (Homo sapiens, UniProt O14965, T217E); assay: In vitro CoAlation assay; format: binding
T4 construct: For enzyme and DSF assays, full-length human Aurora A and Aurora B and 1–43 TPX2 were produced; made in house; host or cells: E. coli
T4 sequence (O14965 whole entry T217E): as the sequence (O14965 whole entry C290A/C393A) above, with T217E, A290C, A393C counted along it
Protocol: as §2

wild-type Aurora A = molecular target: T5, wild-type Aurora A (Homo sapiens, UniProt O14965); assay: In vitro CoAlation assay; format: binding
T5 construct: For enzyme and DSF assays, full-length human Aurora A and Aurora B and 1–43 TPX2 were produced; made in house; host or cells: E. coli
T5 sequence (O14965 whole entry): as the sequence (O14965 whole entry C290A/C393A) above, with A290C, A393C counted along it
Protocol: as §2

C290A Aurora A = molecular target: T6, C290A Aurora A (Homo sapiens, UniProt O14965, C290A); assay: Thermal shift assay (differential scanning fluorimetry); format: binding; conditions: 5 mM ATP or 5 mM CoA
T6 construct: For enzyme and DSF assays, full-length human Aurora A and Aurora B and 1–43 TPX2 were produced; made in house; host or cells: E. coli BL21 (DE3) pLysS
T6 sequence (O14965 whole entry C290A): as the sequence (O14965 whole entry C290A/C393A) above, with A393C counted along it
Protocol: (§3) Asp274Asn and Thr217Glu Aurora A mutants were generated by PCR-site directed mutagenesis, expressed and purified as described previously. Cys290Ala Aurora A was generated using standard procedures, and purified as described.
(§4) Thermal-shift assays were performed with a StepOnePlus Real-Time PCR machine (Life Technologies) using Sypro-Orange dye (Invitrogen) and thermal ramping (0.3 °C in step intervals between 25 and 94 °C). All proteins were diluted to a final concentration of 5 μM in 50 mM Tris/HCl, pH 7.4 and 100 mM NaCl in the presence or absence of the indicated concentrations of ligand (final DMSO concentration no higher than 4 % v/v). CoA, dephosphoCoA or kinase inhibitors diluted from 10 mM DMSO stocks were assayed as described previously. Normalized data were processed using the Boltzmann equation to generate sigmoidal denaturation curves, and average Tm/ΔTm values calculated as previously described using GraphPad Prism software.

[4] = molecular target: T7, kinase-dead D274N (inactive) Aurora A (Homo sapiens, UniProt O14965, D274N); assay: as above; format: binding; conditions: 5 mM ATP or 5 mM CoA; CoA DTT-dependent
T7 construct: For enzyme and DSF assays, full-length human Aurora A and Aurora B and 1–43 TPX2 were produced; 6His (N); made in house; host or cells: E. coli
T7 sequence (O14965 whole entry D274N): as the sequence (O14965 whole entry C290A/C393A) above, with D274N, A290C, A393C counted along it
Protocol: as §3, §4

Structure (SMILES): Nc1ncnc2c1ncn2C1OC(COP(=O)(O)OP(=O)(O)O)C(O)C1O (stereo not shown) [ADP]
- Disruption of bipolar spindle formation and chromosome alignment (mouse oocytes): not

Structure (SMILES): CC(C)(COP(=O)(O)OP(=O)(O)OC[C@H]1O[C@@H](n2cnc3c(N)ncnc32)[C@H](O)[C@@H]1OP(=O)(O)O)[C@@H](O)C(=O)NCCC(=O)NCCS [CoA, Coenzyme A]
- activity at 100 µM (IGF-1R): 93%
- activity at 100 µM (IR): 100%
- activity at 100 µM (IRR): 92%
- activity at 100 µM (TrkA): 104%
- Kinase activity, % of activity in the absence of inhibitor (VEGFR): 81.0%
- In vitro CoAlation of Aurora B (Aurora B): CoAlated at an extremely low level
- CoA binding (in vitro CoAlation) (Aurora B mutant): strong binding
- Covalent modification (binding) by CoA [1]: no binding was detected
- Reduction of covalent modification by CoA in comparison to wild-type Aurora A [2]: > 95%
- CoA binding compared to the wild-type kinase [3]: significantly reduced CoA binding
- In vitro CoAlation of Aurora A (wild-type Aurora A): strong CoAlation
- Ligand binding / thermal stabilization (C290A Aurora A): deficient in CoA-induced thermal stabilization
- Ligand interaction by thermal shift [4]: still able to interact
- Disruption of bipolar spindle formation and chromosome alignment (mouse oocytes): disrupted both bipolar spindle formation and chromosome alignment
- Number of oocytes with atypical spindles and misaligned chromosomes (mouse oocytes; microinjection of 0.15–5 mM CoA, dose-dependent): markedly increased
